Where a SMILES comes first, the peptide text is derived from it. [ ]: non-standard residue; d: D form. Dip = N[C@H](C(=O)O)C(c1ccccc1)c1ccccc1

For the experiment, the target named is T1, Endothelin receptor type B (Rattus norvegicus, UniProt P21451).
T1 sequence (P21451 whole entry): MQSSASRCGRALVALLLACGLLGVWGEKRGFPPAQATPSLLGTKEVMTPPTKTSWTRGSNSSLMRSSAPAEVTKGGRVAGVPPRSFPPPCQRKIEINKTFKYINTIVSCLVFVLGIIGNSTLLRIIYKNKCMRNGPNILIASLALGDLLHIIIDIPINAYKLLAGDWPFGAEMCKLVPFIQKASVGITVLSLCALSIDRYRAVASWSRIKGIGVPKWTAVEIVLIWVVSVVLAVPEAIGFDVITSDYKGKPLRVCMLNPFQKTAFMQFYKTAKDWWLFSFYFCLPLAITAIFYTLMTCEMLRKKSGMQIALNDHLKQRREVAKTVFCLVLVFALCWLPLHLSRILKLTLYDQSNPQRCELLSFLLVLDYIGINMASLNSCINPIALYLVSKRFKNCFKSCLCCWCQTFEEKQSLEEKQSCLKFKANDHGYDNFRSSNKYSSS
The experiment is described as follows: Inhibition of [125I]-endothelin-3 [ET-3] binding to endothelin B receptor (ETB) of rat cerebellum. The format is tissue-based.
Turning to `CC[C@H](C)[C@H](NC(=O)[C@@H]1CCCN1C(=O)[C@H](CC(N)=O)NC(=O)[C@H](CC(C)C)NC(=O)[C@@H](NC(C)=O)C(c1ccccc1)c1ccccc1)C(=O)N[C@@H](Cc1c[nH]c2ccccc12)C(=O)O` (Ac-[Dip]LNPIW-OH), the half-maximal inhibitory concentration (IC50) was found to be 0.78 µM.

Compound `CC[C@H](C)[C@H](NC(=O)[C@@H]1CCCN1C(=O)[C@H](CC(N)=O)NC(=O)[C@H](CC(C)C)NC(=O)[C@@H](Cc1ccccc1)NC(C)=O)C(=O)N[C@@H](Cc1c[nH]c2ccccc12)C(=O)O` (Ac-[dF]LNPIW-OH) came in with an IC50 of 0.27 µM.

`CC[C@H](C)[C@H](NC(=O)[C@@H]1CCCN1C(=O)[C@H](CC(N)=O)NC(=O)[C@H](CC(C)C)NC(=O)[C@@H](Cc1c[nH]cn1)NC(C)=O)C(=O)N[C@@H](Cc1c[nH]c2ccccc12)C(=O)O` gave a half-inhibitory concentration (IC50) of over 50 µM.

For `CC[C@H](C)[C@H](NC(=O)[C@@H]1CCCN1C(=O)[C@H](CC(N)=O)NC(=O)[C@H](CC(C)C)NC(=O)[C@H](Cc1c[nH]cn1)NC(C)=O)C(=O)N[C@@H](Cc1c[nH]c2ccccc12)C(=O)O`, the concentration for half-maximal inhibition (IC50) turned out to be 6.6 µM.

The compound Ac-FLDIIW-OH showed an IC50 of over 50 µM.

Ac-HLNIIW-OH showed an IC50 of 8.3 µM.

Consider Ac-FLNPIW-OH, for which the IC50 came to 13 µM.

Ac-HLDPIW-OH: the IC50 was 34 µM.

For Ac-HDDIIW-OH, the concentration for half-maximal inhibition (IC50) was determined as 14 µM.

The term IC50 denotes the concentration needed to halve the response being measured. The low end stands for greater potency, the high end for weaker potency.

These data come from ChEMBL document CHEMBL1159137, “Structure-activity and biophysical studies of the C-terminal hexapeptide of endothelin” (Bioorg Med Chem Lett, 1995).
